From patent publication US8048924B2, “Methods and compositions employing 4-aminophenylacetic acid compounds” (Biocon Limited, priority 2001, dated 2011)
Several values for one entry are separate records, joined by “and”; a condition that tells them apart may be missing. Equal values may be shown once.

Test system: DNBS colitis
Assay: DNBS colitis in the rat, equimolar rectal doses of 5-ASA, 4-APAA and mixture
Type: in vivo, male Lewis rats
Settings: for average severity score for necrosis, Adventitia / average severity score for necrosis, Mucosa / average severity score for necrosis, Muscularis / average severity score for necrosis, Submucosa: colon histology, scale 1-5, intrarectal twice daily for four days; for reduction in colon:body weight [% BW] / reduction of adhesion scores: rectal b.i.d. 4 days; for reduction in colon:body weight [% BW]: 5-ASA 50 mg/kg, 4-APAA 49.5 mg/kg, mixture 50+49.5 mg/kg; for reduction of adhesion scores: vs vehicle/DNBS
Excerpt: The purpose of this study was to histologically evaluate and compare the effects of three different therapeutic agents administered intrarectally (twice daily for four days) to male Lewis rats following intrarectal administration of dinitrobenzene sulfonic acid (DNBS). DNBS induced colitis in rats according to an established experimental model (see, for example, Bertran et al., “Intracolonic administration of zileuton, a selective 5-lipoxygenase inhibitor, accelerates healing in a rat model of chronic colitis,” Gut. 38(6):899-904 (1996), and Blau et al., “Relation between colonic inflammation severity and total low-molecular-weight antioxidant profiles in experimental colitis,” Dig Dis Sci. 45(6):1180-1187 (2000), the entire disclosures of which are incorporated herein by reference). SHAM and DNBS groups served as negative and positive controls, respectively.
Trimmed specimens of colon from 27 male rats were tested, including microtoming, and hematoxylin and eosin staining. The resulting 27 slides (1 transverse section per slide) were examined microscopically. Except for one rat from the SHAM group and one rat from the DNBS group, all slides had their labels taped over to facilitate blind reading. Lesions were graded on a scale of 1-5 (1=minimal; 2=mild; 3=moderate; 4=moderately-severe; 5=severe).
Because the pattern of necrosis often varied from section to section, the individual intestinal layers were scored separately.
Dinitrobenzene sulfonic acid (DNBS) colitis was induced (no ether anesthesia) in 4 groups 4 of 6 Lewis rats each. One DNBS group was dosed with vehicle (0.7% methyl cellulose) as well as an additional sham group of 6 animals that received a saline enema instead of DNBS. Intrarectal (ir) dosing was performed in conscious animals b.i.d. for 4 days. Drug treatments were as follows: • 5-aminosalicylic acid (5-ASA): 50 mg/kg • 4-aminophenylacetic acid (4-APAA): 49.5 mg/kg (equimolar to 5-ASA) • Mixture: 5-ASA+4-APAA: 50 mg/kg+49.5 mg/kg
Drugs were suspended in the above mentioned vehicle and staff blinded to drug groups. Daily weights and diarrhea scores were recorded. On the 5th day post-irritant rats were sacrificed, laparotomies performed and scored for intestinal adhesions and strictures; colectomized and colon weights recorded, colons opened longitudinally and inflammation/ulcerations scored.
The anti-inflammatory effects of 3 different treatments were compared in a DNBS model of colitis in 30 male Lewis rats weighing between 218 and 260 grams.
Animals were divided into 5 groups of 6 animals in each group: • 0.7% methylcellulose (vehicle)+normal saline • 0.7% methylcellulose (vehicle)+ethanolic solution of 2,4-dinitrobenzenesulfonic acid (DNBS) 30 mg • 5-ASA at 100 mg/kg·day+DNBS 30 mg/rectally • 4-APAA at 99 mg/kg·day+DNBS 30 mg/rectally • 5-ASA+4-APAA mixture (APAZA™) at 199 mg/kg·day+DNBS 30 mg/rectally
Experimental colitis was induced under light anesthesia (ketamine/xylazine) in 4 of 5 groups by instilling DNBS (30 mg) rectally at a volume of 0.5 mL to fasted rats. Each group of animals received rectal twice daily (bid) doses of either vehicle (0.7% methylcellulose) or test compounds (5-ASA, 4-APAA or APAZA™) for 4 days beginning 24 hours after either the normal saline or DNBS irritant was instilled. Body weight and incidence of diarrhea were recorded daily. Each animal in the 4 DNBS groups and in the single parallel saline group was sacrificed 5 days post irritant. Laparotomies and colectomies were performed and animals were scored for the presence and severity of intestinal adhesions, strictures, inflammation, and ulceration. Colon: body weight ratios were determined and tissue was examined histologically.

| Structure (SMILES) | average severity score for necrosis, Adventitia | average severity score for necrosis, Mucosa | average severity score for necrosis, Muscularis | average severity score for necrosis, Submucosa | reduction in colon:body weight [% BW] | reduction of adhesion scores [%] |
| --- | --- | --- | --- | --- | --- | --- |
| Nc1ccc(CC(=O)O)cc1 [4-APAA, (4-aminophenyl)-acetic acid] | 1.67 | 4.33 | 3.17 | 4.00 | ~31% and ~30% | ~25 |
| Nc1ccc(O)c(C(=O)O)c1 [5-ASA, 5-amino-2-hydroxy-benzoic acid, reference compound] | 1.67 | 4.50 | 3.5 | 4.17 | ~31% and ~30% | ~17 |
